Test results reported in patent US6831084B1, “Branched adamantyl and noradamantyl aryl- and aralkylpiperazines with serotonin 5-HT1A activity” (Wyeth, priority 1999, dated 2004).
Structures can show the parent of a compound that is named as a salt.

Tests used:
[1] = biological target: T1, serotonin 5-HT1A receptor (Rattus norvegicus, UniProt P19327); experiment: Displacement of [3H]-8-OH-DPAT from 5-HT1A receptor in rat hippocampal membrane homogenates; type: binding; details: [3H]-8-OH-DPAT displacement, read-out: 5-HT1A Affinity (IC50)
T1 construct: in rat hippocampal membrane homogenates; from tissue; host or cells: rat hippocampus (membrane homogenates)
T1 sequence (P19327 1-422): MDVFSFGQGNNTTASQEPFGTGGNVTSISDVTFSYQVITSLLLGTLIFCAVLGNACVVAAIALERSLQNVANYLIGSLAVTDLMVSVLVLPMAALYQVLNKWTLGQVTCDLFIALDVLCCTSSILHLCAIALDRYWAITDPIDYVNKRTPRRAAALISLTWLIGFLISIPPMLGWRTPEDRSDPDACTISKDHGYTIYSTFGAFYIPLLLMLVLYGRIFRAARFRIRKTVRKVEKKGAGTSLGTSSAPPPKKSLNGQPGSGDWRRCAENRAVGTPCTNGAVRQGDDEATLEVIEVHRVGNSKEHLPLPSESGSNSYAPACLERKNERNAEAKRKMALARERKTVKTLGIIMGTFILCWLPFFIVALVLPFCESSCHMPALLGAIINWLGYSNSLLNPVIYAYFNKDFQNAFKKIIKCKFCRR
Excerpt: Affinity for the serotonin 5-HT1A receptor was established by assaying the test compound's ability to displace [^3H]-8-OH-DPAT from its binding site on the receptor complex in rat hippocampal membrane homogenates according to the method described in U.S. Pat. No. 5,482,940.

human 5-HT1A receptor [2] = biological target: T2, human 5-HT1A receptor (Homo sapiens, UniProt P08908); experiment: Stimulation of [35S]-GTPγS binding (5-HT1A agonist activity) in CHO cells stably transfected with human 5-HT1A receptor; type: biochemical; details: for 5-HT1A Agonist Activity (GTPγS) % Agonist Activity: relative to the effect of the 5-HT1A full agonist 8-OH-DPAT
T2 construct: expressed in transfected cells; host or cells: CHO cells, stably transfected
T2 sequence (P08908 1-422): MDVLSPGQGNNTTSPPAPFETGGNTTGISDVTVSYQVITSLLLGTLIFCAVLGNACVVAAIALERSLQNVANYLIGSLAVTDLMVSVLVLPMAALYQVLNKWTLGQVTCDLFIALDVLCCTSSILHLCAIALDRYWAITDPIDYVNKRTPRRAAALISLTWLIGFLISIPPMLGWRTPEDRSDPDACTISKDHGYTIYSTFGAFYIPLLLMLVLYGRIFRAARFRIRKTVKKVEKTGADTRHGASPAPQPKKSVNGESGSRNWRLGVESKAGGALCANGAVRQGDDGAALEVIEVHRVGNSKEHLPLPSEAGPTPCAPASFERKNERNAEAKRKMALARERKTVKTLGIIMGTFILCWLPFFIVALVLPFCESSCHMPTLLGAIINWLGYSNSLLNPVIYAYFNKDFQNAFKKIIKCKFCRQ
Excerpt: Data are presented as the percent of
agonist activity observed relative to the effect obtained with the 5-HT1A full agonist 8-OH-DPAT and the corresponding EC50 value.

human 5-HT1A receptor [3] = biological target: T2, human 5-HT1A receptor; experiment: Block of 8-OH-DPAT-induced stimulation of [35S]-GTPγS binding (5-HT1A antagonist activity) in CHO cells stably transfected with human 5-HT1A receptor; type: biochemical; details: block of 8-OH-DPAT-induced [35S]-GTPγS binding

Question: With COc1ccccc1N1CCN(C[C@@H](Cc2ccccc2)NC(=O)C23CC4CC(CC(C4)C2)C3)CC1.COc1ccccc1N1CCN(C[C@@H](Cc2ccccc2)NC(=O)C23CC4CC(CC(C4)C2)C3)CC1.O.O=C(O)/C=C/C(=O)O [Example 6, (R)-Adamantane-1-carboxylic acid [1-(phenylmethyl)-2-[4-(2-methoxyphenyl)-piperazinyl]ethyl]-amide Hemifumarate Hemihydrate] as the molecule, how does the IC50 [1] read?
Answer: 0.21 nM

Question: And the “5-HT1A Agonist Activity (GTPγS) % Agonist Activity” value (human 5-HT1A receptor [2])?
Answer: 76%

Question: For O=C(N[C@H](Cc1ccccc1)CN1CCN(Cc2ccccc2)CC1)C12CC3CC(CC(C3)C1)C2 (as salt: hydrochloride) (hydrate or solvate) [Example 1, (R)-N-[1-(Phenylmethyl)-2-[4-(phenylmethyl)-1-piperazinyl]ethyl]tricyclo[3.3.1.1^3,7)]-decane-1-carboxamide Dihydrochloride Dihydrate], which melting point is on record?
Answer: 261 to 263 °C

Question: With O=C(N[C@@H](Cc1ccccc1)CN1CCN(c2ncccn2)CC1)C12CC3CC(CC(C3)C1)C2 [Example 4] as the molecule, how does the IC50 [1] read?
Answer: 1 nM

Question: And the EC50 (human 5-HT1A receptor [2])?
Answer: 2.4 nM

Question: What about the “5-HT1A Agonist Activity (GTPγS) % Agonist Activity” value (human 5-HT1A receptor [2]) of the same molecule?
Answer: 99%

Question: What about the melting point of the same molecule?
Answer: 172 to 175 °C

Question: Which results are given for O=C(N[C@H](Cc1ccccc1)CN1CCN(c2ncccn2)CC1)C12CC3CC(CC(C3)C1)C2 [Example 3, (R)-N-[1-(Phenylmethyl)-2-[4-(2-pyrimidinyl)-1-piperazinyl]ethyl]tricyclo[3.3.1.1^3,7)]-decane-1-carboxamide Hemihydrate]?
Answer: IC50 [1]: 0.43 nM; EC50 (human 5-HT1A receptor [2]): 2 nM; 5-HT1A Agonist Activity (GTPγS) % Agonist Activity (human 5-HT1A receptor [2]): 100%

Question: Which results are given for O=C(N[C@H](Cc1ccccc1)CN1CCN(Cc2ccccc2)CC1)C12CC3CC(CC(C3)C1)C2 [Example 1, (R)-N-[1-(Phenylmethyl)-2-[4-(phenylmethyl)-1-piperazinyl]ethyl]tricyclo[3.3.1.1^3,7)]-decane-1-carboxamide Dihydrochloride Dihydrate]?
Answer: IC50 [1]: 2.3 nM; 5-HT1A Antagonist Activity (GTPγS) % Antagonist Activity (human 5-HT1A receptor [3]): 100%; EC50 (human 5-HT1A receptor [3]): 36 nM

Question: With O=C(N[C@@H](Cc1ccccc1)CN1CCN(Cc2ccccc2)CC1)C12CC3CC(CC(C3)C1)C2 [Example 2, (S)-N-[1-(Phenylmethyl)-2-[4-(phenylmethyl)-1-piperazinyl]ethyl]tricyclo[3.3.1.1^3,7)]-decane-1-carboxamide Dihydrochloride Dihydrate] as the molecule, how does the IC50 [1] read?
Answer: 0.7 nM

Question: What about the EC50 (human 5-HT1A receptor [2]) of the same molecule?
Answer: 21 nM

Question: What about the “5-HT1A Agonist Activity (GTPγS) % Agonist Activity” value (human 5-HT1A receptor [2]) of the same molecule?
Answer: 51%

Question: For Cl.Cl.O.O.O=C(N[C@@H](COCc1ccccc1)CN1CCN(Cc2ccccc2)CC1)C12CC3CC(CC(C3)C1)C2 [Example 5], which “5-HT1A Agonist Activity (GTPγS) % Agonist Activity” value (human 5-HT1A receptor [2]) is on record?
Answer: 49%

Question: For COc1ccccc1N1CCN(C[C@H](Cc2ccccc2)NC(=O)C23CC4CC(CC(C4)C2)C3)CC1.COc1ccccc1N1CCN(C[C@H](Cc2ccccc2)NC(=O)C23CC4CC(CC(C4)C2)C3)CC1.O.O.O=C(O)/C=C/C(=O)O [Example 7, (S)-Adamantane-1-carboxylic acid [1-(phenylmethyl)-2-[4-(2-methoxyphenyl)-piperazinyl]ethyl]-amide Hemifumarate Hydrate], which IC50 [1] is on record?
Answer: 0.7 nM

Question: And the “5-HT1A Agonist Activity (GTPγS) % Agonist Activity” value (human 5-HT1A receptor [2])?
Answer: 85%

Question: Which melting point does the source give for O=C(N[C@@H](Cc1ccccc1)CN1CCN(Cc2ccccc2)CC1)C12CC3CC(CC(C3)C1)C2 (as salt: hydrochloride) (hydrate or solvate) [Example 2, (S)-N-[1-(Phenylmethyl)-2-[4-(phenylmethyl)-1-piperazinyl]ethyl]tricyclo[3.3.1.1^3,7)]-decane-1-carboxamide Dihydrochloride Dihydrate] here?
Answer: 263 to 266 °C

Question: Which melting point does the source give for O=C(N[C@H](Cc1ccccc1)CN1CCN(c2ncccn2)CC1)C12CC3CC(CC(C3)C1)C2 (hydrate or solvate) [Example 3, (R)-N-[1-(Phenylmethyl)-2-[4-(2-pyrimidinyl)-1-piperazinyl]ethyl]tricyclo[3.3.1.1^3,7)]-decane-1-carboxamide Hemihydrate] here?
Answer: 172 to 175 °C

Question: What does the source list for Cl.Cl.O.O.O=C(N[C@@H](COCc1ccccc1)CN1CCN(Cc2ccccc2)CC1)C12CC3CC(CC(C3)C1)C2 [Example 5, (R)-N-[1-((Phenylmethoxy)methyl)-2-[4-(phenylmethyl)-1-piperazinyl]ethyl]tricyclo-[3.3.1.1^3,7)]-decane-1-carboxamide Dihydrochloride Dihydrate]?
Answer: IC50 [1]: 62 nM; EC50 (human 5-HT1A receptor [2]): 77 nM
